The source made the active and inactive calls. No rule for the calls is given here.
Tested on: CCRIS mutagenicity, Ames/micronucleus/aberration tests
Experiment: CCRIS mutagenicity studies
[1] = Test System: AMES SALMONELLA TYPHIMURIUM, Strain/Indicator: TA98, Metabolic Activation: NONE, Method: PREINCUBATION
[2] = Test System: AMES SALMONELLA TYPHIMURIUM, Strain/Indicator: TA98, Metabolic Activation: NONE, Method: STANDARD PLATE
[3] = Test System: AMES SALMONELLA TYPHIMURIUM, Strain/Indicator: TA98, Metabolic Activation: RAT, LIVER, S-9, AROCLOR 1254, Method: STANDARD PLATE
[4] = Test System: AMES SALMONELLA TYPHIMURIUM, Strain/Indicator: TA100, Metabolic Activation: NONE, Method: STANDARD PLATE
[5] = Test System: AMES SALMONELLA TYPHIMURIUM, Strain/Indicator: TA100, Metabolic Activation: RAT, LIVER, S-9, AROCLOR 1254, Method: STANDARD PLATE

CCOC(=O)C1OC1c1ccccc1 (stereo not drawn)
mutagenic call (Test System: AMES SALMONELLA TYPHIMURIUM, Strain/Indicator: TA98, Metabolic Activation: HAMSTER, LIVER, S-9, AROCLOR 1254 (10%), Method: PREINCUBATION): inactive; negative
mutagenic call [1]: inactive; negative
mutagenic call [2]: inactive; negative
mutagenic call (Test System: AMES SALMONELLA TYPHIMURIUM, Strain/Indicator: TA98, Metabolic Activation: RAT, LIVER, S-9, AROCLOR 1254 (10%), Method: PREINCUBATION): inactive; negative
mutagenic call [3]: inactive; negative
mutagenic call (Test System: AMES SALMONELLA TYPHIMURIUM, Strain/Indicator: TA100, Metabolic Activation: HAMSTER, LIVER, S-9, AROCLOR 1254 (10%), Method: PREINCUBATION): inactive; negative
mutagenic call (Test System: AMES SALMONELLA TYPHIMURIUM, Strain/Indicator: TA100, Metabolic Activation: NONE, Method: PREINCUBATION): inactive; negative
mutagenic call [4]: inactive; negative
mutagenic call (Test System: AMES SALMONELLA TYPHIMURIUM, Strain/Indicator: TA100, Metabolic Activation: RAT, LIVER, S-9, AROCLOR 1254 (10%), Method: PREINCUBATION): inactive; negative
mutagenic call [5]: active; positive
mutagenic call (Test System: AMES SALMONELLA TYPHIMURIUM, Strain/Indicator: TA1535, Metabolic Activation: HAMSTER, LIVER, S-9, AROCLOR 1254 (10%), Method: PREINCUBATION): inactive; negative
mutagenic call (Test System: AMES SALMONELLA TYPHIMURIUM, Strain/Indicator: TA1535, Metabolic Activation: NONE, Method: PREINCUBATION): inactive; negative
mutagenic call (Test System: AMES SALMONELLA TYPHIMURIUM, Strain/Indicator: TA1535, Metabolic Activation: NONE, Method: STANDARD PLATE): inactive; negative
mutagenic call (Test System: AMES SALMONELLA TYPHIMURIUM, Strain/Indicator: TA1535, Metabolic Activation: RAT, LIVER, S-9, AROCLOR 1254 (10%), Method: PREINCUBATION): inactive; negative
mutagenic call (Test System: AMES SALMONELLA TYPHIMURIUM, Strain/Indicator: TA1535, Metabolic Activation: RAT, LIVER, S-9, AROCLOR 1254, Method: STANDARD PLATE): inactive; negative
mutagenic call (Test System: AMES SALMONELLA TYPHIMURIUM, Strain/Indicator: TA1537, Metabolic Activation: HAMSTER, LIVER, S-9, AROCLOR 1254 (10%), Method: PREINCUBATION): inactive; negative
mutagenic call (Test System: AMES SALMONELLA TYPHIMURIUM, Strain/Indicator: TA1537, Metabolic Activation: NONE, Method: PREINCUBATION): inactive; negative
mutagenic call (Test System: AMES SALMONELLA TYPHIMURIUM, Strain/Indicator: TA1537, Metabolic Activation: NONE, Method: STANDARD PLATE): inactive; negative
mutagenic call (Test System: AMES SALMONELLA TYPHIMURIUM, Strain/Indicator: TA1537, Metabolic Activation: RAT, LIVER, S-9, AROCLOR 1254 (10%), Method: PREINCUBATION): inactive; negative
mutagenic call (Test System: AMES SALMONELLA TYPHIMURIUM, Strain/Indicator: TA1537, Metabolic Activation: RAT, LIVER, S-9, AROCLOR 1254, Method: STANDARD PLATE): inactive; negative
mutagenic call (Test System: AMES SALMONELLA TYPHIMURIUM, Strain/Indicator: TA1538, Metabolic Activation: NONE, Method: STANDARD PLATE): inactive; negative
mutagenic call (Test System: AMES SALMONELLA TYPHIMURIUM, Strain/Indicator: TA1538, Metabolic Activation: RAT, LIVER, S-9, AROCLOR 1254, Method: STANDARD PLATE): inactive; negative
mutagenic call (Test System: CHINESE HAMSTER OVARY, Strain/Indicator: CHO-K1-BH4/6-THIOGUANINE, Metabolic Activation: NONE): active; positive
mutagenic call (Test System: CHINESE HAMSTER OVARY, Strain/Indicator: CHO-K1-BH4/6-THIOGUANINE, Metabolic Activation: RAT, LIVER, S-9, AROCLOR 1254): active; positive

NC(=O)N(CCCl)N=O
mutagenic call (Test System: CHINESE HAMSTER V-79, Strain/Indicator: V-79/6-THIOGUANINE, Metabolic Activation: NONE, Method: STANDARD PLATE): active; positive
mutagenic call (Test System: E. COLI B, Strain/Indicator: H/R30R, Metabolic Activation: NONE): active; positive
mutagenic call (Test System: E. COLI B, Strain/Indicator: HS30R, Metabolic Activation: NONE): active; positive

CN(C)c1ccc2nc3ccc(=[N+](C)C)cc-3sc2c1
mutagenic call (End Point: In vitro chromosomal aberrations, Test System: Chinese hamster ovary cells, Metabolic Activation: None): active; positive
mutagenic call (End Point: In vitro chromosomal aberrations, Test System: Chinese hamster ovary cells, Metabolic Activation: Rat, Liver, S-9, Aroclor): active; positive
mutagenic call (End Point: In vivo micronucleus, Test System: Bone marrow, Species: Mouse, Strain/Sex: B6C3F1/Male, Route: Intraperitoneal): inactive; negative
mutagenic call (End Point: In vivo micronucleus, Test System: Peripheral blood normochromatic erythrocytes, Species: Mouse, Strain/Sex: B6C3F1/Female, Route: Oral): inactive; negative
mutagenic call (End Point: In vivo micronucleus, Test System: Peripheral blood normochromatic erythrocytes, Species: Mouse, Strain/Sex: B6C3F1/Male, Route: Intraperitoneal): inactive; negative
mutagenic call (End Point: In vivo micronucleus, Test System: Peripheral blood normochromatic erythrocytes, Species: Mouse, Strain/Sex: B6C3F1/Male, Route: Oral): inactive; negative
mutagenic call (Test System: AMES SALMONELLA TYPHIMURIUM, Strain/Indicator: TA98, Metabolic Activation: HAMSTER, LIVER, S-9, AROCLOR 1254, Method: STANDARD PLATE): active; positive
mutagenic call [2]: inactive; negative
mutagenic call [3]: active; positive
mutagenic call [4]: active; positive
mutagenic call [5]: active; positive
mutagenic call (Test System: Ames Salmonella typhimurium, Strain/Indicator: TA98, Metabolic Activation: Hamster, Liver, S-9, Aroclor 1254 (30%), Method: Standard plate): active; positive
mutagenic call (Test System: Ames Salmonella typhimurium, Strain/Indicator: TA98, Metabolic Activation: None, Method: Preincubation): active; positive
mutagenic call (Test System: Ames Salmonella typhimurium, Strain/Indicator: TA98, Metabolic Activation: None, Method: Standard plate): active; positive
mutagenic call (Test System: Ames Salmonella typhimurium, Strain/Indicator: TA98, Metabolic Activation: Rat, Liver, S-9, Aroclor 1254 (10%), Method: Preincubation): active; positive
mutagenic call (Test System: Ames Salmonella typhimurium, Strain/Indicator: TA98, Metabolic Activation: Rat, Liver, S-9, Aroclor 1254 (30%), Method: Standard plate): active; positive
mutagenic call (Test System: Ames Salmonella typhimurium, Strain/Indicator: TA100, Metabolic Activation: Hamster, Liver, S-9, Aroclor 1254 (30%), Method: Standard plate): active; positive
mutagenic call (Test System: Ames Salmonella typhimurium, Strain/Indicator: TA100, Metabolic Activation: None, Method: Preincubation): active; positive
mutagenic call (Test System: Ames Salmonella typhimurium, Strain/Indicator: TA100, Metabolic Activation: None, Method: Standard plate): inactive; negative (ntp describes as equivocal)
mutagenic call (Test System: Ames Salmonella typhimurium, Strain/Indicator: TA100, Metabolic Activation: Rat, Liver, S-9, Aroclor 1254 (10%), Method: Preincubation): active; positive
mutagenic call (Test System: Ames Salmonella typhimurium, Strain/Indicator: TA100, Metabolic Activation: Rat, Liver, S-9, Aroclor 1254 (30%), Method: Standard plate): active; positive
mutagenic call (Test System: E. coli, Strain/Indicator: WP uvrA/pKM101, Metabolic Activation: None, Method: Preincubation): active; positive
mutagenic call (Test System: E. coli, Strain/Indicator: WP uvrA/pKM101, Metabolic Activation: Rat, Liver, S-9, Aroclor 1254 (10%), Method: Preincubation): active; positive
mutagenic call (Test System: MOUSE LYMPHOMA, Strain/Indicator: L5178Y (TK+/TK-), Metabolic Activation: NONE, Method: SUSPENSION/PLATE): active; positive
mutagenic call (Test System: MOUSE LYMPHOMA, Strain/Indicator: L5178Y (TK+/TK-), Metabolic Activation: RAT, LIVER, S-9, Method: SUSPENSION/PLATE): active; positive
mutagenic call (Test System: Mouse lymphoma, Strain/Indicator: L5178Y (tk+/tk-), Metabolic Activation: None, Method: Suspension/plate): active; positive
mutagenic call (Test System: Mouse lymphoma, Strain/Indicator: L5178Y (tk+/tk-), Metabolic Activation: Rat, Liver, S-9, Aroclor 1254, Method: Suspension/plate): active; positive

C[C@H](CCC(=O)O)[C@H]1CC[C@H]2[C@@H]3C(=O)C[C@@H]4C[C@H](O)CC[C@]4(C)[C@H]3CC[C@]12C
mutagenic call (Test System: AMES SALMONELLA TYPHIMURIUM, Strain/Indicator: TA98, Metabolic Activation: NONE, Method: FLUCTUATION TEST): inactive; negative
mutagenic call [1]: inactive; negative
mutagenic call (Test System: AMES SALMONELLA TYPHIMURIUM, Strain/Indicator: TA98, Metabolic Activation: RAT, LIVER, S-9, PCB, Method: PREINCUBATION): inactive; negative
mutagenic call (Test System: AMES SALMONELLA TYPHIMURIUM, Strain/Indicator: TA100, Metabolic Activation: NONE, Method: FLUCTUATION TEST): inactive; negative
